Data on two molecules can be found in US5637596A, “Azabicycloalkyl derivatives of imidazo[1,5-a]indol-3-one and process for their preparation” (Pharmacia S.p.A., priority 1994, dated 1997).

For one experiment, the target named is T1, 5HT3 receptor (Rattus norvegicus, UniProt P35563).
T1 construct: chemoreflex evoked by 5HT in the anesthetized rat; from tissue; host or cells: anesthetized rat, whole animal (endogenous receptor)
T1 sequence (P35563 24-483): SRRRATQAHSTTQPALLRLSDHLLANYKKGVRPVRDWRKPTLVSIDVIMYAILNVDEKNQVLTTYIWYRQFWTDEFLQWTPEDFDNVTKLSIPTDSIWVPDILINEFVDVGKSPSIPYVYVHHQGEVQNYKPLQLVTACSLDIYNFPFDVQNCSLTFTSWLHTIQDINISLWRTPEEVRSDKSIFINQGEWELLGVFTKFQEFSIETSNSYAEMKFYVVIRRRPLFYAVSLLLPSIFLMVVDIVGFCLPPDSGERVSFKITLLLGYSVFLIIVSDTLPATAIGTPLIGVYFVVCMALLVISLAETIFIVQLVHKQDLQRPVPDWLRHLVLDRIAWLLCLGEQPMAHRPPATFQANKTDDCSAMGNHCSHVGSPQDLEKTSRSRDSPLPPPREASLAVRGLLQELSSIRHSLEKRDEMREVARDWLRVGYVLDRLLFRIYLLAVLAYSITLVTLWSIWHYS
In words: Inhibition of the von Bezold-Jarisch chemoreflex evoked by 5-HT in the anesthetized rat (in-vivo 5HT3 antagonist activity). Particulars: von Bezold-Jarisch reflex elicited by 5-HT (30 μg/kg i.v.); for ED50: iv, limits printed on the next line; for % inhibition: dose 100 μg/kg i.v., N = 6, mean. As to the method: Pharmacol. 326, 36-44 (1984).
The following Table I reports in-vivo 5HT3 antagonist activity data obtained in this test for two representative compounds of the invention.
Inhibition of the von Bezold-Jarisch reflex
elicited by 5-HT (30 μg/kg i.v.) by FCE
compounds in the anesthetized rat. Values are
mean ± in S.E.M. from N animals

In another experiment the target is T2, serotonin 5HT3 receptors (Rattus norvegicus, UniProt P35563).
T2 construct: assessed for instance in rat entorhinal cortex using a selective radioligand; from tissue; host or cells: rat entorhinal cortex
T2 sequence (P35563 24-483): T1 sequence (P35563 24-483)
The experiment is described as follows: Affinity for serotonin 5HT3 receptors in rat entorhinal cortex using radioligand 3H-BRL 43694. Type of experiment: binding. The procedure: The affinity for serotonin 5HT3 receptors was assessed for instance in rat entorhinal cortex using a selective radioligand ^3 H-BRL 43694 as described by Nelson and Thomas (1989).
Nelson D. R. and Thomas D. R., [^3 H]-BRL 43694 (Granisetron), a specific ligand for 5HT3 binding sites in rat brain cortical membranes, Biochem. Pharmac., 38, 1693-1695, 1989.
The following Table II summarized the data obtained in this in-vitro test for two representative compounds of the invention.
5-HT3 binding affinity for rat enthiorinal cortex

By ED50 is commonly meant the dose that gives a 50% effect, or the effect in half of the subjects. What is called % inhibition is the change of the read-out against control, counted positive when it falls. As a reminder, the IC50 is the concentration that gives 50% inhibition. Regarding `CN1C2CCC1CC(N1Cc3cc4ccccc4n3C1=O)C2` (stereo not drawn) [FCE 28837, (endo)-2-(8-methyl-8-azabicyclo[3.2.1]oct-3-yl)-1,2-dihydro-imidazo[1,5-a]indol-3-one], on 5HT3 receptor, the ED50 amounted to 0.0118 mg/kg and the “% inhibition” value is reported as 88.5%. This molecule returned an IC50 on serotonin 5HT3 receptors of 10 nM.
Taken in the same sequence, the figures for `Cl.O=C1N(C2CN3CCC2CC3)Cc2cc3ccccc3n21` (stereo not drawn) [FCE 28841, 2-(1-azabicyclo[2.2.2]oct-3-yl)-1,2-dihydro-imidazo[1,5-a]indol-3-one hydrochloride] were 0.0218 mg/kg, 90.71% and 7 nM.
